Tested on: Botrytis cinerea
Assay: Activity against gray mold on bell pepper leaves, protective application
Type: in vivo
Settings: 250 ppm active compound; bell pepper seedlings sprayed to runoff, inoculated next day, evaluated after 5 days; untreated plants 45% infected
Method: The active compounds were prepared as a 10% strength emulsion in a mixture of 70% by weight of cyclohexanone, 20% by weight of Nekanil®) LN (Lutensol®) AP6, wetting agent having emulsifying and dispersing action based on ethoxylated alkylphenols) and 10% by weight of Wettol® EM (nonionic emulsifier based on ethoxylated castor oil) and diluted with water to the desired concentration. Use example: Activity against gray mold, caused by Botiytis cinerea, on bell pepper leaves, protective application Bell pepper seedlings of the cultivar “Neusiedler Ideal Elite” were, after 4 to 5 leaves were well-developed, sprayed to runoff-point with an aqueous suspension having the concentration of active compound stated below. The next day, the treated plants were inoculated with a spore suspension of Botrytis cinerea, which contained 1.7×10^6 spores/ml in an aqueous 2% strength biomalt solution. […] After 5 days, the extent of the fungal infection on the leaves could be determined visually in %. […] The efficacy (E) is calculated as follows, using Abbot's formula: E=(1−α/β)·100 • α corresponds to the fungal infection of the treated plants in % and • β corresponds to the fungal infection of the untreated (control) plants in % At an efficacy of 0, the degree of infection of the treated plants corresponds to that of the untreated control plants; at an efficacy of 100, the treated plants were not infected.

CC1CCN(c2c(-c3c(F)cc(F)cc3F)c(Cl)nc3nc(S)nn23)CC1 [Example 9, 5-chloro-7-(4-methylpiperidin-1-yl)-2-mercapto-6-(2,4,6-trifluorophenyl)-[1,2,4]-triazolo[1,5-a]pyrimidine]
efficacy (Abbot's formula): 56%

Reference: patent US20050272748A1, “2-Mercapto-substituted triazolopyrimidines, methods for the production thereof, the use of the same for controlling patogenic fungi, and agents containing said compounds” (BASF Aktiengesellschaft, priority 2002, published 2005)
